Test results taken from patent US5281628A, “9-amino-7-(substituted)-6-demethyl-6-deoxytetracyclines” (American Cyanamid Company, priority 1991, dated 1994).
Structures can show the parent of a compound that is named as a salt.

Test system: S. aureus and E. coli
Experiment: Acute lethal infections in mice, statements over several strains
Format: in vivo
Details: S. aureus and E. coli carrying tetM
Experimental: The therapeutic effects of tetracyclines are determined against acute lethal infections with various staphylococcal and E. coli strains. Female mice, strain CD-1 Charles River Laboratories, (20±2 grams) are challenged by an intraperitoneal injection of sufficient bacteria (suspended in broth or hog gastric mucin) to kill non-treated controls within 24-48 hours. Antibacterial agents, contained in 0.5 ml of 0.2% aqueous agar, are administered subcutaneously or orally 30 minutes after infection. When an oral dosing schedule is used, animals are deprived of food for 5 hours before and 2 hours after infection. Five mice are treated at each dose level. The 7 day survival ratios from three separate tests are pooled for calculation of median effective dose (ED50).

CN(C)c1cc(N)c(O)c2c1C[C@H]1C[C@H]3[C@H](N(C)C)C(O)=C(C(N)=O)C(=O)[C@@]3(O)C(O)=C1C2=O [A, 9-Amino-7-(dimethylamino)-6-demethyl-6-deoxytetracycline hydrochloride]
ED50 compared with B, strains which carry the tetM resistance determinant: Lowered ED50 's
